Calls of active or inactive are those of the source. No cut-off for these calls is given here.
Columns and labels:
[1] = molecular target: Cholinesterase (Equus caballus, UniProt P81908)
Description: Inhibition of equine serum BuChE using butyrylthiocholine iodide as substrate preincubated with enzyme for 20 mins followed by substrate addition and measured after 20 mins by Ellman's method

[2] = Antioxidant activity assessed as DPPH radical scavenging activity at 100 uM incubated for 2 hrs by microplate reader method; format: functional
[3] = molecular target: Acetylcholinesterase (Electrophorus electricus, UniProt O42275); test: Inhibition of electric eel AChE using acetylthiocholine iodide as substrate preincubated with enzyme for 20 mins followed by substrate addition and measured after 20 mins by Ellman's method
[4] = n-Octanol/PBS partition coefficient, logP of the compound incubated for 48 hrs at pH 7.4 by shake flask method; format: physicochemical
[5] = molecular target: Cholinesterase (Homo sapiens, UniProt P06276)
Description: Inhibition of human serum BuChE using butyrylthiocholine iodide as substrate preincubated with enzyme for 5 mins followed by substrate addition and measured after 5 mins by Ellman's method

[6] = molecular target: T1, Acetylcholinesterase (Homo sapiens, UniProt P22303); test: Inhibition of human AChE using acetylthiocholine iodide as substrate preincubated with enzyme for 5 mins followed by substrate addition and measured after 5 mins by Ellman's method
[7] = Cytotoxicity against human HepG2 cells assessed as cell viability at 50 uM incubated for 24 hrs by MTT assay; format: cell-based; conditions: read-out: Activity
[8] = tested on: Mus musculus; test: Anti-alzheimer activity against scopolamine-induced cognitive dysfunction mouse model assessed as increase in number of platform crossing at 10 mg/kg, ip measured after 60 mins by Morris water maze test; format: functional, organism-based
[9] = tested on: Mus musculus; test: Anti-alzheimer activity against scopolamine-induced cognitive dysfunction mouse model assessed as reduction in escape time latency at 10 mg/kg, ip measured after 60 mins by Morris water maze test; format: functional, organism-based
[10] = tested on: Mus musculus; test: Anti-alzheimer activity against oligomerized-amyloid beta (1 to 42) peptide-induced cognitive dysfunction ICR mouse model assessed as reduction in escape latency time at 15 mg/kg, po administered from day 3 to 14 by Morris water maze test; format: functional, organism-based; conditions: time 12.0 day
[11] = tested on: Mus musculus; test: Anti-alzheimer activity against scopolamine-induced cognitive dysfunction mouse model assessed as increase in swimming time in the target quadrant crossing at 10 mg/kg, ip measured after 60 mins by Morris water maze test; format: functional, organism-based
[12] = species: Mus musculus; test: animal or person; conditions: ICR, po, 288 h, read-out: INH
Description: Anti-alzheimer activity against oligomerized-amyloid beta (1 to 42) peptide-induced cognitive dysfunction ICR mouse model assessed as reduction in amyloid beta (1 to 42) peptide level in brain at 15 mg/kg, po administered from day 3 to 14 by ELISA

[13] = tested on: Mus musculus; test: Anti-alzheimer activity against oligomerized-amyloid beta (1 to 42) peptide-induced cognitive dysfunction ICR mouse model assessed as simplification of trajectories to the platform at 15 mg/kg, po administered from day 3 to 14 by Morris water maze test; format: functional, organism-based; conditions: time 12.0 day
[14] = tested on: Mus musculus; test: Anti-alzheimer activity against oligomerized-amyloid beta (1 to 42) peptide-induced cognitive dysfunction ICR mouse model assessed as improvement in alteration performance at 15 mg/kg, po administered from day 3 to 14 by […]; format: functional, organism-based; conditions: time 12.0 day
[15] = molecular target: T1, Acetylcholinesterase; test: Inhibition of human AChE using acetylthiocholine iodide as substrate at 20 uM preincubated with enzyme for 5 mins followed by substrate addition and measured after 5 mins by Ellman's method; conditions: time 10.0 min
[16] = Permeability of the compound at 100 ug/ml incubated for 18 hrs by PAMPA; format: ADME; conditions: dose 100 µg/ml, read-out: permeability
[17] = molecular target: Cholinesterase (Equus caballus) (UniProt P81908); test: Pseudo-irreversible inhibition of equine serum BuChE assessed as overall carbamolyation-rate using butyrylthiocholine iodide as substrate preincubated with enzyme for 60 mins prior to substrate addition; format: cell-free
[18] = molecular target: Cholinesterase (Equus caballus) (UniProt P81908); test: Pseudo-irreversible inhibition of equine serum BuChE assessed as decarbamolyation-rate using butyrylthiocholine iodide as substrate preincubated with enzyme for 60 mins prior to substrate addition; format: cell-free
[19] = molecular target: Cholinesterase (Equus caballus) (UniProt P81908); test: Pseudo-irreversible inhibition of equine serum BuChE assessed as carbamolyation-rate using butyrylthiocholine iodide as substrate preincubated with enzyme for 60 mins prior to substrate addition; format: cell-free

Cholinesterase (Equus caballus, UniProt P81908), sequence (P81908 whole entry): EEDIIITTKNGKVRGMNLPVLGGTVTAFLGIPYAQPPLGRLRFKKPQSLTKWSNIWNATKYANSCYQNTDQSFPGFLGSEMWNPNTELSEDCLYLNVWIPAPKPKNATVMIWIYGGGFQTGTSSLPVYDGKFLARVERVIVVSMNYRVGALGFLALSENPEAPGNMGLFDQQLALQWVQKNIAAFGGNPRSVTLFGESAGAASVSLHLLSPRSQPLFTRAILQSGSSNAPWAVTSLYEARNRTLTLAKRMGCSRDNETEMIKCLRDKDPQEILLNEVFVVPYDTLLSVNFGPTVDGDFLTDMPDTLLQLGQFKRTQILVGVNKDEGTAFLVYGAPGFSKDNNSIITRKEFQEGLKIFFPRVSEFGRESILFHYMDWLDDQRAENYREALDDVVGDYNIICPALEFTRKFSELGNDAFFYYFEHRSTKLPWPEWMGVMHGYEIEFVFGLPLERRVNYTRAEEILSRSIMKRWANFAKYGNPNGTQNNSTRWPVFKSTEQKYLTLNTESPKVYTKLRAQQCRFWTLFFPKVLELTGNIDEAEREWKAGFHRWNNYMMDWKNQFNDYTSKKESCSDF
Cholinesterase (Equus caballus), sequence (P81908 whole entry): as above
Acetylcholinesterase (Electrophorus electricus, UniProt O42275), sequence (O42275 whole entry): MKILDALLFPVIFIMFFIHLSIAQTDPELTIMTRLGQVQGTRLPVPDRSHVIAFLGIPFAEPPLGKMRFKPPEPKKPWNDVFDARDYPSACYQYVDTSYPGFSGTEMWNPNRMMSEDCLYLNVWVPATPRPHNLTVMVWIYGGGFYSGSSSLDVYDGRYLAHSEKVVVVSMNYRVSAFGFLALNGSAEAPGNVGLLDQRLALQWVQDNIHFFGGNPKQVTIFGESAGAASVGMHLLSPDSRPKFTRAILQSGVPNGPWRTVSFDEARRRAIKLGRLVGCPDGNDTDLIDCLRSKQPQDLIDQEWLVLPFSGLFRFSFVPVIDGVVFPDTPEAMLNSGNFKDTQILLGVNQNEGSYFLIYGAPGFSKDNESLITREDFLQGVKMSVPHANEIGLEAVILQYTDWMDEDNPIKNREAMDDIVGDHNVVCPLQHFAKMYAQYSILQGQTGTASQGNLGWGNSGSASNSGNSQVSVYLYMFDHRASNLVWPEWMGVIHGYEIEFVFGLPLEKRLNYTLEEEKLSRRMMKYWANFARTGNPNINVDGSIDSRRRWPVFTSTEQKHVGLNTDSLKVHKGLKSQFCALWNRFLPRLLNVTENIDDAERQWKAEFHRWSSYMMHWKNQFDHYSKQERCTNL
T1 sequence (P22303 whole entry): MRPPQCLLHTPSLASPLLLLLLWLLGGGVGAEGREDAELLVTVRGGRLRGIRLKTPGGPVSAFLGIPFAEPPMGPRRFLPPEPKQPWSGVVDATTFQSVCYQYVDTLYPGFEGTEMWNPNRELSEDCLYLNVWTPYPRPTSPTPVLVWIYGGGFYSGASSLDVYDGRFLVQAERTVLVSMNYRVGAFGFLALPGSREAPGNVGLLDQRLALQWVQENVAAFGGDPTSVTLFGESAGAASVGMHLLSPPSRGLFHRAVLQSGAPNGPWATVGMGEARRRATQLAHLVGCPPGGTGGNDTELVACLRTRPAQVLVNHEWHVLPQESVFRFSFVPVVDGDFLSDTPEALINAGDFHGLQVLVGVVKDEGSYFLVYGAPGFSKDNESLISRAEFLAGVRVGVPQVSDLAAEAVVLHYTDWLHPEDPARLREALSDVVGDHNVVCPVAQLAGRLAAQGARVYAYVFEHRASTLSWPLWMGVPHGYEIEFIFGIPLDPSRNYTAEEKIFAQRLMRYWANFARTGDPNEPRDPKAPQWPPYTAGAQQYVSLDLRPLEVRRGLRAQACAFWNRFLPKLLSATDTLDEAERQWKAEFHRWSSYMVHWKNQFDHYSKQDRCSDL
Cholinesterase (Homo sapiens, UniProt P06276), sequence (P06276 whole entry): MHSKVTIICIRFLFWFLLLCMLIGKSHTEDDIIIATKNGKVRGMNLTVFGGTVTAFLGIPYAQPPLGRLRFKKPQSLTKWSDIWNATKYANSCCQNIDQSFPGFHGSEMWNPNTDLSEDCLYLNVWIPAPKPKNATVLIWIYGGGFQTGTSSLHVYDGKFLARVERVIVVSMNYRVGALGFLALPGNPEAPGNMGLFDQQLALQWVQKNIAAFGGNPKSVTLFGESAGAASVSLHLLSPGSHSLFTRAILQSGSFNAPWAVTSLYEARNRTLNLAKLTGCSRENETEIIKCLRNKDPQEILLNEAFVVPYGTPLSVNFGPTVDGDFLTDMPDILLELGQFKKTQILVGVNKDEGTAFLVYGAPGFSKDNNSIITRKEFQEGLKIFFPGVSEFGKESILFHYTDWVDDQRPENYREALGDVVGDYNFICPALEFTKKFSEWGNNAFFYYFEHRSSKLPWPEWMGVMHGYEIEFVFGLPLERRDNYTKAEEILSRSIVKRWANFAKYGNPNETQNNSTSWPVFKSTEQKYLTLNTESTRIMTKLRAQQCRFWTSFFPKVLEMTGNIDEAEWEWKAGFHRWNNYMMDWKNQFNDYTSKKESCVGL

Row | Structure (SMILES) | IC50 [1] [nM] | inhibition [2] | IC50 [3] | logD at 48 h [4] | also measured
1 | C=C(C)[C@@H]1CCC(C)=C[C@H]1c1c(O)cc(CCCCC)cc1OC(=O)N(C)Cc1cccc(Cl)c1 | 2820 | inactive | Not Active |  | 
2 | C=C(C)[C@@H]1CCC(C)=C[C@H]1c1c(O)cc(CCCCC)cc1OC(=O)N(C)Cc1ccccc1 | 46 | 21.1% | Not Active | 2.2 | 
3 | C=C(C)[C@@H]1CCC(C)=C[C@H]1c1c(O)cc(CCCCC)cc1OC(=O)N(C)Cc1cccc(Br)c1 | 2400 | inactive | Not Active |  | 
4 | C=C(C)[C@@H]1CCC(C)=C[C@H]1c1c(OC(=O)N(C)CC)cc(CCCCC)cc1OC(=O)N(C)CC | 290 | 0.1% | Not Active | 2.57 | 
5 | C=C(C)[C@@H]1CCC(C)=C[C@H]1c1c(OC(=O)N2CCCC2)cc(CCCCC)cc1OC(=O)N1CCCC1 | 530 | 17.8% | Not Active |  | 
6 | C=C(C)[C@@H]1CCC(C)=C[C@H]1c1c(O)cc(CCCCC)cc1OC(=O)N(C)Cc1ccc(Br)cc1 | 7.3 | 41.8% | Not Active | 2.37 | IC50 [5]: 2150 nM; IC50 [6]: Not Active
7 | COc1cc2c(cc1OC)C(=O)C(CC1CCN(Cc3ccccc3)CC1)C2 (configuration not stated) [DONEPEZIL] |  | 1.3% |  |  | viability at 24 h, 50 µM [7]: 91.1%; Activity [8]: Active; Activity [9]: Active; Activity [10]: Active; Activity [11]: Active; inhibition in vivo at 15 mg/kg [12]: 19%; Activity [13]: Active; Activity [14]: Active
8 | C=C(C)[C@@H]1CCC(C)=C[C@H]1c1c(O)cc(CCCCC)cc1OC(=O)N(C)Cc1ccc(F)cc1 | 69 | 27% | Not Active |  | 
9 | C=C(C)[C@@H]1CCC(C)=C[C@H]1c1c(O)cc(CCCCC)cc1OC(=O)N(C)CC | 77 | 31.1% |  | 1.92 | inhibition [15]: 13.2%; IC50 ([3]; read-out: IC50): 15000 nM; Papp at 18 h, 100 ug/ml [16]: 18.8 ×10⁻⁶ cm/s; IC50 [5]: 1510 nM
10 | CCN(C)C(=O)Oc1cccc([C@H](C)N(C)C)c1 |  | 2.5% |  |  | K [17]: 0.26 µM/min; inhibition [15]: 12.2%; K [18]: 4.97 10^3/min; K [19]: 0.3 min⁻¹

From ChEMBL document CHEMBL4831510, “Novel cannabidiol-carbamate hybrids as selective BuChE inhibitors: Docking-based fragment reassembly for the development of potential therapeutic agents against Alzheimer's disease” (Eur J Med Chem, 2021)
